From PubChem BioAssay AID196 (DTP/NCI, 2004)
Values joined by “and” are separate entries in the source; they are usually repeats but may differ in a detail not shown here. Identical values can stand only once. Inconclusive results and toxic doses are left out.

System: BDF1 mice, intracerebral B16 melanoma, median survival T/C
Experiment: NCI In Vivo Anticancer Drug Screen. Data for tumor model B16 Melanoma (intracerebral) in B6D2F1 (BDF1) mice
Details: endpoint: median survival time, higher = longer survival
Method: The antitumor activity of compounds was measured in mice bearing transplantable tumors. Survival or tumor size were measured and the results are expressed as the measurement made in the treated group (T) divided by the measurement made in the vehicle treated control group (C). The tumor model used in this assay is B16 Melanoma (intracerebral) in B6D2F1 (BDF1) mice

[1] = dose: 26.7 mg/kg/injection, schedule: Q01DX001 (ip), vehicle: Klucel (hydroxypropylcellulose) (HPC)
[2] = dose: 40.0 mg/kg/injection, schedule: Q01DX001 (ip), vehicle: Klucel (hydroxypropylcellulose) (HPC)
[3] = dose: 60.0 mg/kg/injection, schedule: Q01DX001 (ip), vehicle: Klucel (hydroxypropylcellulose) (HPC)
[4] = dose: 128.0 mg/kg/injection, schedule: Q01DX009 (ip), vehicle: Klucel (hydroxypropylcellulose) (HPC)
[5] = dose: 256.0 mg/kg/injection, schedule: Q01DX009 (ip), vehicle: Klucel (hydroxypropylcellulose) (HPC)
[6] = dose: 4.0 mg/kg/injection, schedule: Q01DX009 (ip), vehicle: saline
[7] = dose: 8.0 mg/kg/injection, schedule: Q01DX009 (ip), vehicle: saline
[8] = dose: 8.0 mg/kg/injection, schedule: Q01DX009 (ip), vehicle: Klucel (hydroxypropylcellulose) (HPC)
[9] = dose: 64.0 mg/kg/injection, schedule: Q01DX009 (ip), vehicle: Klucel (hydroxypropylcellulose) (HPC)

## CC1CCC(NC(=O)N(CCCl)N=O)CC1 (configuration not stated)
dose: 0.5 mg/kg/injection, schedule: Q01DX009 (ip), vehicle: Klucel (hydroxypropylcellulose) (HPC)
  T/C: 105 % of control
dose: 1.0 mg/kg/injection, schedule: Q01DX009 (ip), vehicle: Klucel (hydroxypropylcellulose) (HPC)
  T/C: 102 % of control
dose: 2.0 mg/kg/injection, schedule: Q01DX009 (ip), vehicle: Klucel (hydroxypropylcellulose) (HPC)
  T/C: 111 % of control
dose: 4.0 mg/kg/injection, schedule: Q01DX009 (ip), vehicle: Klucel (hydroxypropylcellulose) (HPC)
  T/C: 117 % of control
dose: 6.48 mg/kg/injection, schedule: Q01DX001 (ip), vehicle: other
  T/C: 106 % of control
dose: 10.8 mg/kg/injection, schedule: Q01DX001 (ip), vehicle: other
  T/C: 117 % of control
dose: 50.0 mg/kg/injection, schedule: Q01DX001 (ip), vehicle: other
  T/C: 118 % of control

## CS(=O)(=O)Nc1ccc(Nc2c3ccccc3nc3cc([N+](=O)[O-])ccc23)cc1
dose: 25.0 mg/kg/injection, schedule: Q04DX003 (ip), vehicle: saline sonified
  T/C: 100 % of control
dose: 50.0 mg/kg/injection, schedule: Q04DX003 (ip), vehicle: saline sonified
  T/C: 95 % of control
dose: 75.0 mg/kg/injection, schedule: Q04DX003 (ip), vehicle: saline sonified
  T/C: 87 % of control

## O=P1(N(CCCl)CCCl)NCCCO1 (configuration not stated)
dose: 12.5 mg/kg/injection, schedule: Q01DX009 (ip), vehicle: saline
  T/C: 116 % of control and 92 % of control
dose: 12.5 mg/kg/injection, schedule: Q01DX009 (ip), vehicle: water
  T/C: 108 % of control
dose: 25.0 mg/kg/injection, schedule: Q01DX009 (ip), vehicle: saline
  T/C: 100 % of control and 108 % of control
dose: 25.0 mg/kg/injection, schedule: Q01DX009 (ip), vehicle: water
  T/C: 116 % of control
dose: 50.0 mg/kg/injection, schedule: Q01DX009 (ip), vehicle: saline
  T/C: 120 % of control and 121 % of control
dose: 100.0 mg/kg/injection, schedule: Q01DX009 (ip), vehicle: saline
  T/C: 95 % of control
dose: 100.0 mg/kg/injection, schedule: Q01DX009 (ip), vehicle: water
  T/C: 104 % of control

## O=NN(CCF)C(=O)NCCO
dose: 13.0 mg/kg/injection, schedule: Q01DX001 (ip), vehicle: saline
  T/C: 169 % of control
dose: 21.6 mg/kg/injection, schedule: Q01DX001 (ip), vehicle: saline
  T/C: 209 % of control
[1]
  T/C: 90 % of control
dose: 36.0 mg/kg/injection, schedule: Q01DX001 (ip), vehicle: saline
  T/C: 392 % of control
[2]
  T/C: 338 % of control
[3]
  T/C: 220 % of control

## CS(C)=O
dose: 1000.0 mg/kg/injection, schedule: Q01DX005 (ip), vehicle: saline
  T/C: 103 % of control
dose: 2000.0 mg/kg/injection, schedule: Q01DX005 (ip), vehicle: saline
  T/C: 97 % of control and 100 % of control and 108 % of control
dose: 4000.0 mg/kg/injection, schedule: Q01DX005 (ip), vehicle: saline
  T/C: 101 % of control and 109 % of control and 114 % of control

## CCCCN(C)N=Nc1ccc([N+](=O)[O-])cc1C(N)=O
dose: 32.0 mg/kg/injection, schedule: Q01DX005 (ip), vehicle: saline with Tween-80
  T/C: 121 % of control
dose: 64.0 mg/kg/injection, schedule: Q01DX005 (ip), vehicle: saline with Tween-80
  T/C: 116 % of control
dose: 256.0 mg/kg/injection, schedule: Q01DX005 (ip), vehicle: saline with Tween-80
  T/C: 154 % of control
dose: 512.0 mg/kg/injection, schedule: Q01DX005 (ip), vehicle: saline with Tween-80
  T/C: 152 % of control

## CC(=O)OCC1C(=O)OCC1C(=O)N1Cc2cc3ccccc3nc2C1 (configuration not stated)
dose: 8.0 mg/kg/injection, schedule: Q01DX009 (ip), vehicle: saline with Tween-80
  T/C: 111 % of control
dose: 16.0 mg/kg/injection, schedule: Q01DX009 (ip), vehicle: saline with Tween-80
  T/C: 99 % of control
dose: 32.0 mg/kg/injection, schedule: Q01DX009 (ip), vehicle: saline with Tween-80
  T/C: 103 % of control
dose: 64.0 mg/kg/injection, schedule: Q01DX009 (ip), vehicle: saline with Tween-80
  T/C: 95 % of control
dose: 128.0 mg/kg/injection, schedule: Q01DX009 (ip), vehicle: saline with Tween-80
  T/C: 93 % of control

## COCC(O)Cn1ccnc1[N+](=O)[O-] (configuration not stated)
[4]
  T/C: 89 % of control
[5]
  T/C: 86 % of control

## COc1cccc2c1C(=O)c1c(O)c3c(c(O)c1C2=O)C[C@@](O)(/C(C)=N/NC(=O)c1ccccc1)C[C@@H]3OC1CC(N)C(O)C(C)O1 (some centres not stated)
dose: 1.0 mg/kg/injection, schedule: Q01DX009 (ip), vehicle: saline with Tween-80
  T/C: 105 % of control
dose: 1.0 mg/kg/injection, schedule: Q01DX009 (ip), vehicle: saline
  T/C: 89 % of control
dose: 2.0 mg/kg/injection, schedule: Q01DX009 (ip), vehicle: saline with Tween-80
  T/C: 111 % of control
dose: 2.0 mg/kg/injection, schedule: Q01DX009 (ip), vehicle: saline
  T/C: 89 % of control and 95 % of control
dose: 4.0 mg/kg/injection, schedule: Q01DX009 (ip), vehicle: saline with Tween-80
  T/C: 109 % of control
[6]
  T/C: 93 % of control and 100 % of control
[7]
  T/C: 99 % of control

## CCCCCCC(=O)O[C@H]1CC[C@H]2[C@@H]3CCC4=CC(=O)CC[C@]4(C)[C@H]3CC[C@]12C
[8]
  T/C: 107 % of control
dose: 16.0 mg/kg/injection, schedule: Q01DX009 (ip), vehicle: Klucel (hydroxypropylcellulose) (HPC)
  T/C: 98 % of control
dose: 32.0 mg/kg/injection, schedule: Q01DX009 (ip), vehicle: Klucel (hydroxypropylcellulose) (HPC)
  T/C: 100 % of control
[9]
  T/C: 96 % of control
[4]
  T/C: 103 % of control

## N=[N+]=CC(=O)CCC(NC(=O)C(CCC(=O)C=[N+]=N)NC(=O)CCC(N)C(=O)O)C(=O)O (configuration not stated)
dose: 0.05 mg/kg/injection, schedule: Q01DX005 (ip), vehicle: Klucel (hydroxypropylcellulose) (HPC)
  T/C: 124 % of control and 108 % of control
dose: 0.1 mg/kg/injection, schedule: Q01DX005 (ip), vehicle: Klucel (hydroxypropylcellulose) (HPC)
  T/C: 97 % of control and 108 % of control
dose: 0.2 mg/kg/injection, schedule: Q01DX005 (ip), vehicle: Klucel (hydroxypropylcellulose) (HPC)
  T/C: 120 % of control and 111 % of control
dose: 0.4 mg/kg/injection, schedule: Q01DX005 (ip), vehicle: Klucel (hydroxypropylcellulose) (HPC)
  T/C: 112 % of control

## CN(C)CC(=O)c1ccc(O)c(O)c1
dose: 100.0 mg/kg/injection, schedule: Q01DX005 (ip), vehicle: saline
  T/C: 96 % of control
dose: 200.0 mg/kg/injection, schedule: Q01DX005 (ip), vehicle: saline
  T/C: 124 % of control and 97 % of control
dose: 400.0 mg/kg/injection, schedule: Q01DX005 (ip), vehicle: saline
  T/C: 119 % of control
dose: 800.0 mg/kg/injection, schedule: Q01DX005 (ip), vehicle: saline
  T/C: 90 % of control and 108 % of control

## Cc1c(N)nc([C@H](CC(N)=O)NC[C@H](N)C(N)=O)nc1C(=O)N[C@H](C(=O)N[C@H](C)[C@@H](O)[C@H](C)C(=O)N[C@H](C(=O)NCCc1nc(-c2nc(C(=O)NCCC[S+](C)C)cs2)cs1)[C@@H](C)O)C(OC1OC(CO)C(O)C(O)C1OC1OC(CO)C(O)C(OC(N)=O)C1O)c1cnc[nH]1 (some centres not stated)
[6]
  T/C: 110 % of control
[7]
  T/C: 120 % of control
dose: 16.0 mg/kg/injection, schedule: Q01DX009 (ip), vehicle: saline
  T/C: 106 % of control

## CCN(CC)c1ccc2cc3ccc(=[N+](CC)CC)cc-3oc2c1
dose: 4.0 mg/kg/injection, schedule: Q01DX005 (ip), vehicle: saline
  T/C: 100 % of control
dose: 4.0 mg/kg/injection, schedule: Q01DX005 (ip), vehicle: suspension in saline
  T/C: 93 % of control
dose: 8.0 mg/kg/injection, schedule: Q01DX005 (ip), vehicle: saline
  T/C: 98 % of control
dose: 8.0 mg/kg/injection, schedule: Q01DX005 (ip), vehicle: suspension in saline
  T/C: 113 % of control

## C[C@]1(O)CC[C@H]2[C@@H]3CCC4=CC(=O)CC[C@]4(C)[C@@]3(F)[C@@H](O)C[C@@]21C
[8]
  T/C: 115 % of control
[9]
  T/C: 111 % of control
[4]
  T/C: 111 % of control
[5]
  T/C: 95 % of control

## CN(C)N=Nc1ccnc2ccc(Br)cc12
dose: 3.12 mg/kg/injection, schedule: Q01DX009 (ip), vehicle: other
  T/C: 102 % of control
dose: 6.25 mg/kg/injection, schedule: Q01DX009 (ip), vehicle: other
  T/C: 102 % of control
dose: 12.5 mg/kg/injection, schedule: Q01DX009 (ip), vehicle: other
  T/C: 97 % of control
dose: 25.0 mg/kg/injection, schedule: Q01DX009 (ip), vehicle: other
  T/C: 107 % of control
dose: 50.0 mg/kg/injection, schedule: Q01DX009 (ip), vehicle: other
  T/C: 102 % of control

## Nc1ncnc2c1ncn2C1OC(COP(=O)(O)O)C(O)C1O (configuration not stated)
dose: 1600.0 mg/kg/injection, schedule: Q01DX009 (ip), vehicle: saline
  T/C: 99 % of control and 102 % of control

## O=CC(NC(=O)N(CCF)N=O)C(O)C(O)C(O)CO (configuration not stated)
[1]
  T/C: 107 % of control
[2]
  T/C: 109 % of control
[3]
  T/C: 118 % of control
